Patent publication US20250367129A1, “Lipid Compounds and Uses Thereof” (Pfizer Inc., priority 2022, published 2025)

Experiments:
[1] = LNP size and polydispersity index by Malvern Zetasizer dynamic light scattering (CA HA modFlu mRNA LNPs); format: physicochemical; conditions: DLS; for Size (nm): LNP of the ionizable lipid:cholesterol:DSPC:ALC-0159 about 46.3:42.7:9.4:1.6, N:P about 6:1, CA HA modFlu mRNA; for PDI: LNP with CA HA modFlu mRNA
Description: (§1) Lipid nanoparticles were prepared and tested according to the general procedures described in U.S. Pat. No. 9,737,619 (PCT Pub. No. WO2015/199952) and U.S. Pat. No. 10,166,298 (PCT Pub. No. WO 2017/075531) and PCT Pub. No. WO2020/146805. The novel ionizable lipids of the invention, cholesterol, distearoylphosphatidylcholine (DSPC) and ALC-0159 2-[(polyethylene glycol)-2000]-N,N ditetradecylacetamide were solubilized in ethanol at a molar ratio of about 46.3:42.7:9.4:1.6. Lipid nanoparticles were made by mixing the lipids containing organic phase with the mRNA containing aqueous phase using an N:P ratio of about 6:1. The mRNA was diluted in buffer. Syringe pumps were used to mix the ethanolic lipid solution with the mRNA aqueous solution. The ethanol was then removed, and the external buffer replaced with another buffer (e.g., Tris) by dialysis. Finally, the lipid nanoparticles were filtered.
(§2) Total RNA concentration and encapsulation efficiency was assessed using the RiboGreen RNA quantitation assay. RNA integrity pre and post formulation was monitored by Agilent Fragment Analyzer capillary gel electrophoresis. Malvern Zetasizer dynamic light scattering (DLS) was used to determine LNP size and polydispersity index (PDI). In vitro expression of the novel ionizable lipid nanoparticles was assessed in HEK293F and Hela cells similar to described in Example 72. Nuclear count and identification of cells stained positive for gene of interest was done on an Opera Phenix high content imager (PerkinElmer, USA).

[2] = Encapsulation efficiency, RiboGreen RNA quantitation assay (CA HA modFlu mRNA LNPs); format: physicochemical; conditions: LNP with CA HA modFlu mRNA
Description: as §1, §2

HEK293F cells = experiment: In vitro expression of novel ionizable lipid nanoparticles, high content imaging (CA HA modFlu mRNA); format: cell-based; conditions: LNP with CA HA modFlu mRNA
Description: (§3) Plated Hek293T or Hela cells were dosed with lipid nanoparticles in a total volume of 40 μl cell culture media and incubated overnight at 37° C. and 5% CO2. After fixation with 4% paraformaldehyde in PBS cells were washed in PBS containing 0.3% Triton-X100 and 3% BSA (w/v), followed by nuclear staining with Hoechst and antibody staining for the encoded gene of interest. Nuclear count and identification of cells stained positive for gene of interest was done on an Opera Phenix high content imager (PerkinElmer, USA).
as §1, §2

Hela cells = experiment: as above; format: cell-based; conditions: LNP with CA HA modFlu mRNA
Description: as §3, §1, §2

SMILES | Size (nm) [1] [nm] | PDI [1] | EE % [2] [%] | EC50 Hek293F (ng/well) (HEK293F cells) | EC50 Hela (ng/well) (Hela cells)
CCCCCCCC(CCCCCCC)C(=O)OCC(COC(=O)C(CCCCCCC)CCCCCCC)N1CCC2(CCN(CCCO)CC2)CC1 [Example 10, 2-(9-(3-hydroxypropyl)-3,9-diazaspiro[5.5]undecan-3-yl)propane-1,3-diyl bis(2-heptylnonanoate)] | 109 | 0.054 | 99 | 1.3 | 1.5
CCCCCCCCC(CCCCCC)C(=O)OCC(COC(=O)C(CCCCCC)CCCCCCCC)N1CCC2(CCN(CCCNS(=O)(=O)CC)CC2)CC1 (stereo not shown) [Example 11, 2-(9-(3-(ethylsulfonamido)propyl)-3,9-diazaspiro[5.5]undecan-3-yl)propane-1,3-diyl bis(2-hexyldecanoate)] | 121 | 0.080 | 99 | 3.7 | 13.8
CCCCCCCC(CCCCCCC)C(=O)OCC(COC(=O)C(CCCCCCC)CCCCCCC)N1CCC2(CCN(CCCCO)C2)C1 (stereo not shown) [Example 12, 2-(7-(4-hydroxybutyl)-2,7-diazaspiro[4.4]nonan-2-yl)propane-1,3-diyl bis(2-heptylnonanoate)] | 105 | 0.042 | 100 | 0.22 | 0.44
CCCCCCCC(CCCCCCC)C(=O)OCC(COC(=O)C(CCCCCCC)CCCCCCC)N1CC2(CCN(CCCCO)CC2)C1 [Example 13, 2-(7-(4-hydroxybutyl)-2,7-diazaspiro[3.5]nonan-2-yl)propane-1,3-diyl bis(2-heptylnonanoate)] | 131 | 0.086 | 99 | 0.36 | 1.6
CCCCCCCC(CCCCCCC)C(=O)OCC(COC(=O)C(CCCCCCC)CCCCCCC)N1CCC2(CCN(CCCCO)CC2)C1 [Example 14, 2-(8-(4-hydroxybutyl)-2,8-diazaspiro[4.5]decan-2-yl)propane-1,3-diyl bis(2-heptylnonanoate)] | 114 | 0.036 | 100 | 1.5 | 2.5
CCCCCCCCC(CCCCCC)C(=O)OCCC(CCOC(=O)C(CCCCCC)CCCCCCCC)N1CCC2(CCN(CCCCO)CC2)CC1 (stereo not shown) [Example 15, 3-(9-(4-hydroxybutyl)-3,9-diazaspiro[5.5]undecan-3-yl)pentane-1,5-diyl bis(2-hexyldecanoate)] | 110 | 0.120 | 100 | 4.0 | 2.7
CCCCCCCCC(CCCCCC)C(=O)OCC(COC(=O)C(CCCCCC)CCCCCCCC)N1CCC2(CCN(CCCCCO)C2)C1 (stereo not shown) [Example 16, 2-(7-(5-hydroxypentyl)-2,7-diazaspiro[4.4]nonan-2-yl)propane-1,3-diyl bis(2-hexyldecanoate)] | 134 | 0.090 | 99 | 0.11 | 0.18
CCCCCCCCC(CCCCCC)C(=O)OCC(COC(=O)C(CCCCCC)CCCCCCCC)N1CCC2(CCN(CCCCCO)C2)CC1 (stereo not shown) [Example 17, 2-(2-(5-hydroxypentyl)-2,8-diazaspiro[4.5]decan-8-yl)propane-1,3-diyl bis(2-hexyldecanoate)] | 149 | 0.053 | 100 | 0.64 | 1.3
